The values below come from paper PMC3592886, “Utilization of Quantitative In Vivo Pharmacology Approaches to Assess Combination Effects of Everolimus and Irinotecan in Mouse Xenograft Models of Colorectal Cancer” (PLoS ONE, 2013).

Where two headings read alike, the source gives them in different places. Marks after values point to notes of the source that are not given here.

The subject of data set [1] is HT29 cells. Briefly: Sulforhodamine B (SRB) anti-proliferation assay, HT29. It is filed as cell-based. Here is the method:
Cytoxic effects were determined using the sulforhodamine B (SRB) assay. Briefly, 5000 viable cells were plated into 96-well plates and incubated overnight prior to exposure with different concentrations of drugs. Cells were exposed to increasing concentrations of everolimus (0–200 nM), SN38 (0–8 nM), and combinations of the two. Following a 72 hour incubation, media was removed and cells were fixed with cold 10% trichloroacetic acid for 30 minutes at 4° C. Cells were washed with water and stained with 0.4% SRB for 30 minutes at room temperature. Cells were washed again with 1% acetic acid and stain was solubilized with 10 mM tris at room temperature and read at an OD of 565 nm. […] The resulting Combination Index (CI) was used as a quantitative measure of the degree of interaction between different drugs. A CI value equal to 1 denotes additivity; CI greater than 1, antagonism; CI less than 1, synergism.

The subject of data set [2] is ribosomal phospho-S6 kinase (pS6RP). As to the kind of experiment: Western blot, pS6RP in CRC cell lines. It is filed as cell-based. Particulars: everolimus 20 nM, 24 hours, all cell lines. Here is the method:
Cells were seeded into 6-well plates 24 hours prior to treatment with each drug alone or in combination for 24 hours. Cells were scraped into RIPA buffer containing protease inhibitors, EDTA, NaF, and sodium orthovanadate. Total protein was determined using the Pierce 660 nm Protein Assay (Pierce, Rockford, IL). Thirty micrograms of total protein was loaded onto a 4–12% gradient gel, electrophoresed and transferred to nitrocellulose using the iBlot system (Invitrogen, Carlsbad, CA). Membranes were blocked for one hour at room temperature with Licor Blocking Buffer (Licor, Lincoln, NE) prior to overnight incubation at 4°C with one of the following antibodies: pS6RP, tS6RP, pAKT, tAKT, pERK, tERK, p21, PARP, actin and α-tubulin (Cell Signaling, Beverly, MA). All antibodies were used at a 1∶1000 dilution except for pERK, which was used at 1∶2000. Following primary antibody incubation, blots were washed in TBS-Tween(0.1%), then incubated with the appropriate secondary antibody at 1∶15,000 (Licor, Lincoln, NE) for one hour at room temperature. After three additional washes, blots were developed using the Licor Odyssey (Licor, Lincoln, NE).
(In general: Immunoblotting shows a protein as a band on a membrane.)

The test system of data set [3] is HT29 cells. Briefly: In vitro metabolomics, HT29 cells. It is filed as cell-based. Particulars: 24 and 96 hours exposure to 30nM RAD001. On the procedure:
Metabolomics was performed in vitro on HCT116
(KRAS mt; PIK3CA mt) and HT29 (BRAF mt;
PIK3CA mt) cells after 0 (control), 24 and 96 hours exposure to 30nM RAD001. In both cell lines after 24 and 96 hours glucose uptake was reduced showing a decrease in proliferation. […]

Data set [4] relates to HT29 tumors. Briefly: NMR-based metabolomics of HT29 tumors. It is filed as in vivo, mice. Conditions: end of study. Here is the method:
When HT29 and HCT116 tumors reached an average volume of ∼325 mm^3 animals were randomized into four treatment groups (n = 9–10 mice per group): (i) vehicles, (ii) 5 mg/kg everolimus (RAD) by oral gavage (PO) daily, (iii) 10 mg/kg irinotecan (IRI) once weekly by intravenous (iv) tail vein injection, and (iv) a combination of RAD and IRI. Everolimus, diluted in sterile water, and irinotecan, diluted in sterile 0.9% saline, were administered at 4 mL/kg. Animals were treated for 28 days. Tumor volumes and body weights were measured 2–3 times weekly. On day 28 of treatment 3–6 animals per group were sacrificed, approximately 24 hours following everolimus treatment, and tumors harvested for metabolomic analysis.
For metabolomic analysis, animals were fasted for 4 hours then received 250 mg/kg of [1-^13C] glucose (Cambridge Isotopes, Cambridge, MA) by IV injection 60 minutes prior to tumor harvesting. Snap-frozen tumor specimens underwent two-phase acid extraction procedure (using 8% perchloric acid) previously established and extensively published [19]–[22]. Further details may also be found in Supplement S1 (section SA.2.).

The conditions of data set [5]: everolimus, humans; cited from earlier work.
Data set [6] can be described thus: Human pharmacokinetics of everolimus from the literature. It is filed as in vivo. Conditions: humans at the clinically used doses of 5 to 10 mg per day; 75% plasma protein binding used; from data of ref 25, 26. The source says:
For in vivo studies, we established doses of everolimus and irinotecan to administer to mice that would yield exposures at or below clinically achievable levels. Human pharmacokinetic information on everolimus, [26] and irinotecan/SN38 [27]–[30] was gathered from the literature and is presented in Tables 1 and 2 respectively.

Data set [7] has as its system VEGF and bFGF stimulated endothelial cells (HUVECs). Further details: method as in PMID 19223496. Conditions: read-out: IC50, anti-proliferative activity; cited from earlier work.
The subject of data set [8] is HCT116 tumor xenografts. Also noted: method as in PMID 19223496, PMID 20124452. Conditions: everolimus at 10–12 mg/kg, mice bearing HCT116 tumor xenografts; cited from earlier work.
Data set [9] can be described thus: Simulation of everolimus plasma concentrations at 5 mg/kg (two-compartment model). Further details: species or system mice. Here is the method: Plasma and tumor pharmacokinetic parameters were calculated by noncompartmental analysis with WinNonlin. Everolimus plasma data was fit to a two-compartment model with first-order absorption and simulations of plasma concentrations at a 5 mg/kg dose of everolimus were performed by SAAM II version 2.1 (The Epsilon Group, Charlottesville, VA/University of Washington).
Everolimus [nmol/g tissue] […]
Everolimus plasma (A) and tumor (B) pharmacokinetics were measured in nude mice bearing HT29 xenografts.
10 (●) mg/kg everolimus daily for 7 days prior to sample collection.
Data represents the average of 3 samples and the lines represent the data fits to a two-compartment model with first-order absorption. The parameter estimates from the fits to the 2.5 and 10 mg/kg data were then used to simulate the steady-state dosing of 5 mg/kg RAD001 (C).
Simulations were generated based on daily dosing. Additional details of the study can be found in the main text.
To simulate data at different concentrations between 2.5 and 10 mg/kg the following assumptions were made; (1) everolimus absorption and its’ elimination from the central compartment is constant across dose levels, and (2) the volume of the central compartment varies linearly between doses. We believe these assumptions are valid since the pharmacokinetics appeared to be linear between 2.5 and 10 mg/kg doses, and the model fits the measured data at 2.5 and 10 mg/kg doses well and agrees with pharmacokinetic parameters estimated by non-compartmental analysis (Table S1). […]

For data set [10] the following is noted: Human, cited from earlier work.
The mark [11] stands for this setting: everolimus 5 mg/kg dose in mice.
Where [12] appears, read: 10 mg daily oral, steady-state, ref 25.

On to `CO[C@H]1C[C@@H]2CC[C@@H](C)[C@@](O)(O2)C(=O)C(=O)N2CCCC[C@H]2C(=O)O[C@H]([C@H](C)C[C@@H]2CC[C@@H](OCCO)[C@H](OC)C2)CC(=O)[C@H](C)/C=C(\C)[C@@H](O)[C@@H](OC)C(=O)[C@H](C)C[C@H](C)/C=C/C=C/C=C/1C` [Everolimus, 40-O-(2-hydroxyethyl)-rapamycin], for which the “%Growth Inhibition” value in data set [1] (HT29, RAD (20 nM), SN38 (4 nM) or the combination of the two, Figure 2) worked out at 74%. In addition, the IC50 in data set [1] (Homo sapiens, HT-29, HT29 cells) is 1.2 nM; in data set [7], 0.1 to 0.8 nM. The “effect on ribosomal phospho-S6 kinase (pS6RP)” value in data set [2] is “able to inhibit”. Besides, the glucose uptake result in data set [3] is listed as “reduced”. Besides, the “effects on glucose metabolism” value in data set [4] is “decrease in lactate and glycolysis”. In data set [5], the plasma protein binding was 75%. In addition, the “AUCss,free (steady-state free plasma exposure)” value in [6] fell in the range of 60 to 178 ng·h/mL. Moreover, in [8], the “tumor growth inhibition, single agent” value is given as 45–55%. Besides, the “AUCss,free” value in data set [9] (5 mg/kg in mice, from simulated data) is 37 ng·h/mL. Moreover, the “average free concentration (Css,avg)” value in data set [9] (setting [11]) is given as “about 1.5 nM”. The “free plasma concentration, Cmax” value in [9] (setting [11]) is 6 nM. Also, in [9] (setting [11]), the “free plasma concentration, Cmin” value was 0.2 nM. For the same compound, the AUC0→t is 238 ± 77 ng·h/mL in [10] (5 mg daily oral, ref 25); 543 ± 189 ng·h/mL in [10] (5 mg daily oral, ref 26); 514 ± 231 ng·h/mL in data set [10] (10 mg daily oral, ref 25); 711 ± 113 ng·h/mL in data set [10] (10 mg daily oral, ref 26). Also, the Cmin result in [10] (5 mg daily oral, ref 25) is listed as “^†5.4 ng/mL”; in data set [10] (5 mg daily oral, steady-state, estimated from graph in reference), “∼12–14^bd ng/mL”; in [10] (10 mg daily oral, steady-state, estimated from graph in reference), “∼20^bd ng/mL”; in data set [10] (setting [12]), 13.3 ^b ng/mL. The Cmax in [10] (5 mg daily oral, steady-state) is 32±9 ^b ng/mL; in [10] (setting [12]), 61±17 ^b ng/mL; in [10] (10 mg daily oral, steady-state, ref 26), 66±1.4 ^b ng/mL.

Usually IC50 stands for the concentration that inhibits the measured activity by half.
